Data taken from patent publication US11958865B1, “Leucine-rich repeat kinase 2 (LRRK2) inhibitors” (H. Lundbeck A/S, priority 2022, dated 2024).
pIC50: −log10 of the molar value.

How the values were obtained:
LRRK2 WT [1] = molecular target: T1, LRRK2 WT (Homo sapiens (Human), UniProt Q5S007); assay: LRRK2 wild-type LanthaScreen TR-FRET kinase activity assay; assay type: biochemical; conditions: 1 nM kinase, 1.3 mM ATP, n≥2 tests
Protocol: (§1) LRRK2 kinase activity was measured using a LanthaScreen kinase activity assay available from Invitrogen (Life Technologies Corporation). […] The phosphorylated peptide is recognized by a terbium-labelled phospho-specific anti-LRRKtide antibody (pLRRKtide antibody), obtainable from Life Technologies Corporation) and, subsequently, the phosphorylated LRRKtide can be quantified by the extent of TR-FRET between the terbium donor and fluorescein acceptor.
(§2) As discussed above, this mutation increases the kinase activity relative to the wild type. The kinase reactions were performed in a 20 μL volume in 384-well plates. The kinase reaction buffer consisted of 50 mM Tris pH 8.5, 0.01% BRIJ-35, 10 mM MgCl2, 1 mM EGTA, and 2 mM DTT.
(§3) The mixture was further incubated for 30 minutes at RT. TR-FRET was measured by excitation of the terbium-donor with 340 nm light and subsequent (delay time […]) measurement of terbium and fluorescein emission at 495 nm and 520 nm, respectively, over a time window of […]. The measurement was repeated 30 times for fluorescein and 30 times for terbium emission with a […] between repeats. TR-FRET measurements were performed on a Biotek Synergy plate. The TR-FRET signal was calculated as the emission-ratio at 520 nm over 495 nm.
(§4) Test compound potency (IC50) was estimated by nonlinear regression using the sigmoidal dose-response (variable slope) using Xlfit 4 (IDBS, Guildford, Surrey, UK, model 205). Were the IC50 could not be determined the % inhibition at the highest tested concentration is given by equation 1. Equation (1): y=(A+((B−A)/(1+((C/x)^D)))) (1)
(§5) where y is the normalized TR-TRET ratio measurement for a given concentration of test compound, x is the concentration of test compound, A is the estimated efficacy (% inhibition) at infinite compound dilution, and B is the maximal efficacy (% inhibition). C is the IC50 value and D is the Hill slope coefficient. IC50 estimates were obtained from independent experiment and the logarithmic average was calculated.

LRRK2 WT [2] = molecular target: T1, LRRK2 WT; assay: LRRK2 wild-type ADP-Glo kinase assay; assay type: biochemical; conditions: read-out: LRRK2 WT ADPGlo IC50
Protocol: LRRK2 kinase activity was measured using an ADP-Glo kinase assay from Promega Corporation. The assay is a homogeneous luminescence-based assay that measures ADP formed from a kinase reaction. The ADP is converted into ATP, which is used to generate light in a luciferase reaction. The luminescence generated correlates with kinase activity.
The LRRK2 kinase was obtained from Invitrogen (Life Technologies Corporation) and comprises residue 970 to 2527 of the full length human wild-type LRRK2 kinase. The kinase reactions were performed in a 10 μL volume in 384-well plates. The kinase reaction buffer consisted of 50 mM Tris pH 8.5, 0.01% BRIJ-35, 10 mM MgCl2, 1 mM EGTA, and 2 mM DTT.
The reaction mixture (10 μl total volume) was incubated for 3 hours at room temperature (RT, ca. 25° C.), before the reaction was terminated by addition of 10 μl ADP-Glo reagent. The mixture was further incubated for 60 minutes at RT before addition of 20 μl Kinase detection reagent from the ADP-Glo assay kit. Luminescence signal was measure on a BMG Labtech Pherastar FSX multimode microplate reader. The signal integration time was 0.5 s.
Test compound potency (Ki,app) was estimated by nonlinear regression using the tight-binding fit model in GeneData Screener (GeneData AG). In cases where the Ki,app could not be determined, the % inhibition at the highest tested concentration is reported. The tight-binding fit model is given by euquation (2). […] Ki,app is the apparent dissociation constant of the inhibitor. The IC50 can be calculated as given by equation (3). Equation (3): IC50=Ki,app+[E]/2 (3) IC50 estimates were obtained from independent experiment and the logarithmic average was calculated.

[3] = Hepatocyte intrinsic clearance assay; assay type: in vitro ADME, Human; conditions: pooled donor, cryopreserved hepatocytes, pH 7.4; human hepatocytes 1×10^6/mL; 0.05 μM; 2 h at 37° C.
Protocol: Test compounds (final concentration 0.05 μM, 0.05% organic) were incubated for 2 h at 37° C., with shaking, in supplemented Leibovitz L-15 media (pH 7.4) containing commercially sourced, pooled donor, cryopreserved hepatocytes (final concentration 1×10^6 hepatocytes/mL). The CLint reactions (350 μL) were initiated by addition of test compound. Aliquots (25 μL) were taken at 1, 5, 10, 15, 30, 60, 90 and 120 minutes and then protein crashed with ice-cold acetonitrile containing internal standard (150 μL) then centrifuged (1960 g for 20 minutes at 4° C.). Supernatant was diluted (1:4) with deionized water then analyzed by liquid chromatography (LC)-tandem mass spectrometry (MS/MS).

LRRK2 G2019S = LRRK2 G2019S (Homo sapiens (Human), UniProt Q5S007, G2019S); assay: LRRK2 G2019S LanthaScreen TR-FRET kinase activity assay; assay type: biochemical; conditions: 250 pM kinase, 1.3 mM ATP, n≥2 tests
Protocol: as §1, §2, §3, §4, §5

[4] = Hepatic microsomal intrinsic clearance assay; assay type: in vitro ADME; conditions: pooled liver microsomes, pH 7.4; liver microsomes 0.5 mg/mL; 1 μM; NADPH; 1 hour at 37° C.; LLOQ 0.36 L/h/kg
Procedure, shortened: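 Compounds at 1 μM final were incubated with pooled liver microsomes (0.5 mg/mL) in phosphate buffer pH 7.4 at 37 °C for up to 60 min. Samples taken at 0, 5, 10, 20, 30 and 60 min were quenched with acetonitrile and analysed by LC-MS/MS.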

T1 sequence (Q5S007 970-2527): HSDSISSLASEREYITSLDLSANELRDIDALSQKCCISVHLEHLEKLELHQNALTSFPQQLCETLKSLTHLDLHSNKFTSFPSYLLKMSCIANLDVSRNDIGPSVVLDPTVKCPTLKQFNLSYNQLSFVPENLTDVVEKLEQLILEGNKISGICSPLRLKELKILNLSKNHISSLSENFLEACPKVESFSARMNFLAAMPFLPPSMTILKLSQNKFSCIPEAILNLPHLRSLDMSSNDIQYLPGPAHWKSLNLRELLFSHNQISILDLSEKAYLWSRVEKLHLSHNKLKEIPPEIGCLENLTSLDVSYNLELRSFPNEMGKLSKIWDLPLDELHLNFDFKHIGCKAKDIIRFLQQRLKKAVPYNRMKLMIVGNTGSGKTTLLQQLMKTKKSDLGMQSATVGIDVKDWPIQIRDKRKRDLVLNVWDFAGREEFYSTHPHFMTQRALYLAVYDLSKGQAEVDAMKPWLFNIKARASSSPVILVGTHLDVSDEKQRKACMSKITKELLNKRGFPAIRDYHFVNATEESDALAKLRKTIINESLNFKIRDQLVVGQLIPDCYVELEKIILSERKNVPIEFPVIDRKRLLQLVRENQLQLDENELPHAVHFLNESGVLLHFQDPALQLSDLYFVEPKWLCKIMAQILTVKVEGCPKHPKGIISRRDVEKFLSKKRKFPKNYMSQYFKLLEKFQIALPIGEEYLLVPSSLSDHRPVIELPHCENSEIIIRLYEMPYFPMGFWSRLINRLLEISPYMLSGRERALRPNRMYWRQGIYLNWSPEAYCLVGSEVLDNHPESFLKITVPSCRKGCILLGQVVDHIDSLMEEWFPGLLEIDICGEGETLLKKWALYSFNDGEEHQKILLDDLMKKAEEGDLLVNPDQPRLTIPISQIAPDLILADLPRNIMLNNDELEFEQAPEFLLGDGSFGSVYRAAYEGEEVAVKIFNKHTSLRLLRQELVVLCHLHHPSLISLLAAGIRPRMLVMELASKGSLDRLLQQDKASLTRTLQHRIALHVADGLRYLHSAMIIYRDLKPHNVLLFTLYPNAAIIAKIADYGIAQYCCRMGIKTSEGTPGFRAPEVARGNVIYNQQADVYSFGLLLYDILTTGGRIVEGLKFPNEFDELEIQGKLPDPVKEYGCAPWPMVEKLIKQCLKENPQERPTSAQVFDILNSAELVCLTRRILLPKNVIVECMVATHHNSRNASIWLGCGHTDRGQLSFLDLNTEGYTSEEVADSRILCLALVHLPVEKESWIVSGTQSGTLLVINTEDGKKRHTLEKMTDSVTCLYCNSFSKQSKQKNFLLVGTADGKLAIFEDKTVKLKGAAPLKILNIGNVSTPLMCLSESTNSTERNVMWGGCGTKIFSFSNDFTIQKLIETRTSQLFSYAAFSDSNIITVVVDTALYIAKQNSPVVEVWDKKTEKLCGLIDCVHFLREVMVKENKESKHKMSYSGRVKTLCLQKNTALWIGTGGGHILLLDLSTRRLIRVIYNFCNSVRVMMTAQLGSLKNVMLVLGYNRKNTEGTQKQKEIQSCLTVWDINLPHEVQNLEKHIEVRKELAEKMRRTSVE
Chain of LRRK2 G2019S (Q5S007 970-2527 G2019S): as the sequence (Q5S007 970-2527) above, with G1050S counted along it

SMILES: [2H]C([2H])([2H])Oc1ncccc1-n1nc2c(c1C)Nc1ncc3c(Cl)nn(c3n1)CCCO2 [Example 24, 8-Chloro-2-(2-(methoxy-d3)pyridin-3-yl)-3-methyl-2,4,12,13-tetrahydro-11H-5,7-(azenometheno)dipyrazolo[3,4-b:5′,1′-g][1]oxa[4,6,8]triazacycloundecine]
- pIC50 (LRRK2 WT [1]): 9.02
- pIC50 (LRRK2 WT [2]): 9.31
- CLint scaled at 0.05 μM [3]: 17.7 mL/min/kg
- pIC50 (LRRK2 G2019S): 9.46
- CLint scaled at 1 μM [4]: 12.5 mL/min/kg
